Data from ChEMBL document CHEMBL1144087, “Triterpenoid saponins from Ilex kudincha” (J Nat Prod, 1999).
Active and inactive are the calls of the source. The calls are words filed in the database; no cut-off is given here.

What was measured:
[1] = target: T1, Sterol O-acyltransferase 1 (Homo sapiens) (UniProt P35610); test: Inhibition of ACAT at 0.2 mg/mL
T1 sequence (whole entry): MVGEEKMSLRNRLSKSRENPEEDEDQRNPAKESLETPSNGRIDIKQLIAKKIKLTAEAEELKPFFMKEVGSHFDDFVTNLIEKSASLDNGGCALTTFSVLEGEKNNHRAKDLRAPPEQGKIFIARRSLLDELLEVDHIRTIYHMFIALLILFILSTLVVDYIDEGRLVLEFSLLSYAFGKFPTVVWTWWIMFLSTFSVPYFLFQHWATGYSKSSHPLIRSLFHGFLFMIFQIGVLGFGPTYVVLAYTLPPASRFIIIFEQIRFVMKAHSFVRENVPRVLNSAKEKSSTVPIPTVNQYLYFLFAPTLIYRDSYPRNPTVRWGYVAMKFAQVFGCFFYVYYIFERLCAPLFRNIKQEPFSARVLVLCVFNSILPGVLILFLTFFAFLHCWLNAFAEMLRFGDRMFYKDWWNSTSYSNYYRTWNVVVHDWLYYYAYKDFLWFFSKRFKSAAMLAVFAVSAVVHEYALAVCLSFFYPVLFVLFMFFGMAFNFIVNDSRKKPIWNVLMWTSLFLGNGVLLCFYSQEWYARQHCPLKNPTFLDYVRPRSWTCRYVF

[2] = target: T1, Sterol O-acyltransferase 1 (Homo sapiens); test: Inhibition of ACAT at 0.05 mg/mL
[3] = target: T1, Sterol O-acyltransferase 1 (Homo sapiens); test: Inhibition of ACAT at 1 mg/mL

inhibition [1] [%] | inhibition [2] [%] | inhibition [3] [%] | Activity [1] | Activity [2] | Activity [3] | Compound
10.3 | 10.9 | 31.8 |  |  |  | C[C@@H]1O[C@@H](O[C@H]2[C@H](O[C@H]3CC[C@]4(C)[C@H]5CC=C6[C@H]7[C@](C(=O)O[C@@H]8O[C@H](CO)[C@@H](O)[C@H](O)[C@H]8O)(CC[C@@H](C)[C@@]7(C)O)CC[C@@]6(C)[C@]5(C)CC[C@H]4C3(C)C)OC[C@H](O)[C@@H]2O[C@@H]2O[C@H](CO)[C@@H](O)[C@H](O)[C@H]2O)[C@H](O)[C@H](O)[C@H]1O
 |  | 35.5 | inactive | inactive |  | C[C@H]1[C@H](C)CC[C@]2(C(=O)O[C@@H]3O[C@H](CO)[C@@H](O)[C@H](O)[C@H]3O)CC[C@]3(C)C(=CC[C@@H]4[C@@]5(C)C[C@@H](O)[C@H](O[C@@H]6OC[C@H](O)[C@H](O)[C@H]6O)[C@@](C)(CO)[C@@H]5CC[C@]43C)[C@H]12
 |  |  | inactive | inactive | inactive | C[C@@H]1O[C@@H](O[C@H]2[C@H](OC(=O)[C@]34CCC(C)(C)[C@@H](O)[C@H]3C3=CC[C@@H]5[C@@]6(C)CC[C@H](O[C@@H]7OC[C@H](O)[C@H](O[C@@H]8O[C@H](CO)[C@@H](O)[C@H](O)[C@H]8O)[C@H]7O[C@@H]7O[C@@H](C)[C@H](O)[C@@H](O)[C@H]7O)C(C)(C)[C@@H]6CC[C@@]5(C)[C@]3(C)CC4)O[C@H](CO)[C@@H](O)[C@@H]2O)[C@H](O)[C@H](O)[C@H]1O
 |  | 72.8 | inactive | inactive |  | C[C@@H]1O[C@@H](O[C@H]2[C@H](O[C@H]3CC[C@]4(C)[C@H]5CC=C6[C@H]7[C@](C(=O)O[C@@H]8O[C@H](CO)[C@@H](O)[C@H](O)[C@H]8O)(CC[C@@H](C)[C@@]7(C)O)CC[C@@]6(C)[C@]5(C)CC[C@H]4C3(C)C)OC[C@H](O)[C@@H]2O)[C@H](O)[C@H](O)[C@H]1O
 |  | 12.5 | inactive |  |  | C[C@@H]1CC[C@]2(C(=O)O[C@@H]3O[C@H](CO)[C@@H](O)[C@H](O)[C@H]3O)CC[C@]3(C)C(=CC[C@@H]4[C@@]5(C)CC[C@H](O[C@H]6O[C@@H](C(=O)O)[C@H](O)[C@@H](O)[C@@H]6O)C(C)(C)[C@@H]5CC[C@]43C)[C@@H]2[C@]1(C)O
10.6 |  |  |  | inactive | inactive | C[C@@H]1O[C@@H](O[C@H]2[C@H](OC(=O)[C@]34CC[C@@H](C)[C@@](C)(O)[C@H]3C3=CC[C@@H]5[C@@]6(C)CC[C@H](O[C@@H]7OC[C@H](O)[C@H](O[C@@H]8O[C@H](CO)[C@@H](O)[C@H](O)[C@H]8O)[C@H]7O[C@@H]7O[C@@H](C)[C@H](O)[C@@H](O)[C@H]7O)C(C)(C)[C@@H]6CC[C@@]5(C)[C@]3(C)CC4)O[C@H](CO)[C@@H](O)[C@@H]2O)[C@H](O)[C@H](O)[C@H]1O
29 |  | 63.9 |  |  |  | C[C@H]1[C@H](C)CC[C@]2(C(=O)O[C@@H]3O[C@H](CO)[C@@H](O)[C@H](O)[C@H]3O)CC[C@]3(C)C(=CC[C@@H]4[C@@]5(C)CC[C@H](O[C@H]6O[C@@H](C(=O)O)[C@H](O)[C@@H](O)[C@@H]6O)[C@@](C)(CO)[C@@H]5CC[C@]43C)[C@H]12
36.5 | 15.7 | 64.3 |  |  |  | CC1(C)CC[C@]2(C(=O)O[C@@H]3O[C@H](CO)[C@@H](O)[C@H](O)[C@H]3O)CC[C@]3(C)C(=CC[C@@H]4[C@@]5(C)CC[C@H](O[C@H]6O[C@@H](C(=O)O)[C@H](O)[C@@H](O)[C@@H]6O)[C@@](C)(CO)[C@@H]5CC[C@]43C)[C@@H]2C1
 |  |  | inactive | inactive | inactive | C[C@@H]1O[C@@H](O[C@H]2[C@H](O[C@H]3CC[C@]4(C)[C@H]5[C@@H](O)CC6=C7[C@]8(CC[C@](C)(OC8=O)[C@@]7(C)O)CC[C@@]6(C)[C@]5(C)CC[C@H]4C3(C)C)OC[C@H](O)[C@@H]2O[C@@H]2O[C@H](CO)[C@@H](O)[C@H](O)[C@H]2O[C@@H]2O[C@H](CO)[C@@H](O)[C@H](O)[C@H]2O)[C@H](O)[C@H](O)[C@H]1O
 |  |  | inactive | inactive | inactive | C[C@@H]1O[C@@H](O[C@H]2[C@H](O[C@H]3CC[C@]4(C)[C@H]5CC=C6[C@H]7[C@]8(CC[C@](C)(OC8=O)[C@@]7(C)O)CC[C@@]6(C)[C@]5(C)CC[C@H]4C3(C)C)OC[C@H](O)[C@@H]2O[C@@H]2O[C@H](CO)[C@@H](O)[C@H](O)[C@H]2O[C@@H]2O[C@H](CO)[C@@H](O)[C@H](O)[C@H]2O)[C@H](O)[C@H](O)[C@H]1O
 |  | 18.9 | inactive | inactive |  | C[C@@H]1CC[C@]2(C(=O)O[C@@H]3O[C@H](CO)[C@@H](O)[C@H](O)[C@H]3O)CC[C@]3(C)C(=CC[C@@H]4[C@@]5(C)CC[C@H](O[C@@H]6OC[C@H](O)[C@H](O)[C@H]6O)[C@@](C)(CO)[C@@H]5CC[C@]43C)[C@@H]2[C@]1(C)O
 |  | 43 | inactive | inactive |  | CC1(C)[C@@H](O[C@@H]2O[C@H](CO)[C@@H](O)[C@H](O)[C@H]2O[C@@H]2O[C@H](CO)[C@@H](O)[C@H](O)[C@H]2O)CC[C@]2(C)[C@H]3C[C@@H](O)C4=C5[C@]6(CC[C@](C)(OC6=O)[C@@]5(C)O)CC[C@@]4(C)[C@]3(C)CC[C@@H]12
 | 31.7 | 25.4 | inactive |  |  | C[C@@H]1O[C@@H](O[C@H]2[C@H](O[C@H]3CC[C@]4(C)[C@H]5CC=C6[C@@H]7CC(C)(C)CC[C@]7(C(=O)O[C@@H]7O[C@H](CO)[C@@H](O)[C@H](O)[C@H]7O)CC[C@@]6(C)[C@]5(C)CC[C@H]4C3(C)C)OC[C@H](O)[C@@H]2O[C@@H]2O[C@H](CO)[C@@H](O)[C@H](O)[C@H]2O)[C@H](O)[C@H](O)[C@H]1O
 |  | 20 | inactive | inactive |  | C[C@@H]1O[C@@H](O[C@H]2[C@H](O[C@H]3CC[C@]4(C)[C@H]5CC=C6[C@@H]7[C@H](O)C(C)(C)CC[C@]7(C(=O)O[C@@H]7O[C@H](CO)[C@@H](O)[C@H](O)[C@H]7O)CC[C@@]6(C)[C@]5(C)CC[C@H]4C3(C)C)OC[C@H](O)[C@@H]2O[C@@H]2O[C@H](CO)[C@@H](O)[C@H](O)[C@H]2O)[C@H](O)[C@H](O)[C@H]1O
 |  | 24.1 | inactive |  |  | CC1(C)[C@@H](O[C@@H]2OC[C@H](O)[C@H](O)[C@H]2O[C@@H]2O[C@H](CO)[C@@H](O)[C@H](O)[C@H]2O)CC[C@]2(C)[C@H]3C[C@@H](O)C4=C5[C@]6(CC[C@](C)(OC6=O)[C@@]5(C)O)CC[C@@]4(C)[C@]3(C)CC[C@@H]12
 |  | 60 | inactive |  |  | C=C1CC[C@]2(C(=O)O[C@@H]3O[C@H](CO)[C@@H](O)[C@H](O)[C@H]3O[C@@H]3O[C@@H](C)[C@H](O)[C@@H](O)[C@H]3O)CC[C@]3(C)C(=CC[C@@H]4[C@@]5(C)CC[C@H](O[C@@H]6OC[C@H](O)[C@H](O[C@@H]7O[C@H](CO)[C@@H](O)[C@H](O)[C@H]7O[C@@H]7O[C@H](CO)[C@@H](O)[C@H](O)[C@H]7O)[C@H]6O[C@@H]6O[C@@H](C)[C@H](O)[C@@H](O)[C@H]6O)C(C)(C)[C@@H]5CC[C@]43C)[C@@H]2[C@]1(C)O
 |  |  | inactive |  | inactive | C[C@@H]1CC[C@]2(C(=O)O[C@@H]3O[C@H](CO)[C@@H](O)[C@H](O)[C@H]3O)CC[C@]3(C)C(=CC[C@@H]4[C@@]5(C)CC[C@H](O[C@@H]6OC[C@H](O)[C@H](O[C@@H]7O[C@H](CO)[C@@H](O)[C@H](O)[C@H]7O)[C@H]6O)C(C)(C)[C@@H]5CC[C@]43C)[C@@H]2[C@]1(C)O
